Reference: a melting point compilation (Tetko et al.; mined from patent text by program, amines drawn as free bases though some values may be those of a salt)

SMILES | melting point [°C]
Cn1c([N+](=O)[O-])cnc1-c1nnc2ccc(N3CCOCC3)nn12 | 240 to 242
O=C(O)CSCCSc1ccc(O)cc1 | 105
COC(=O)C(=O)Nc1ccc(C(CC2CCCC2)C(=O)Nc2nccs2)cc1 (stereo unspecified) | 95 to 98
NC1CCN(c2cnccn2)CC1 | 158 to 160
Cc1nc2nccc(Cl)c2cc1Br | 160 to 164
COc1cccc2c1CCNC2=S | 44 to 46
OCCCCc1n[nH]c2ccc(C(F)(F)F)cc12 | 74 to 76
CCCC=Cc1c(CC)nc(CC)c(CO)c1-c1ccccc1 | 74 to 76
CC(=O)Sc1cccs1 | 112 to 114
CC(C)S(=O)(=O)C(C#N)=CC=CN(C)C | 102 to 104
CC(C)(C)OC(=O)N1CCN(C(c2ccccc2)c2ccc(Cl)cc2)CC1 (single isomer, unassigned; (-)) | 156
O=[N+]([O-])CS(=O)(=O)c1c[nH]c2ccccc12 | 181 to 182
O=C(c1ccc(Cl)cc1)C1(n2cnc(Cl)n2)CC1 | 85
CCCCOc1ncc(C(C)=O)cc1-c1nn2c(CC)nc(C)c2c(=O)[nH]1 | 190 to 196
CCN1CCC2(c3cccc(OC)c3)Cc3[nH]c(C(N)=O)c(C)c3CC2C1 (stereo unspecified) | 176 to 178
OCc1c[nH]c(-c2ccc(OCc3ccccc3)cc2)n1 | 183 to 185
Cc1cccc2nc3n(c12)CC(c1ccccn1)S3 (stereo unspecified) | 128 to 130
NCc1ccn(C2=CC3=C(CC2)CCc2[nH]c(=O)c(=O)n(OCC(=O)O)c23)c1 | > 300
CCCCCCCOC(=O)Oc1ccc(-c2ccc(C#N)cc2)cc1 | 50.2 to 50.5

SMILES | melting point [°C]
CC(=O)OC1CCC2(C)C(CCC3C4CCC(C(C)=O)C4(C)CC(O)C32Cl)C1 (stereo unspecified) | 175 to 179
CC(C)c1ccc(CN2CCC(NC(=O)NC(=O)c3ccccc3)CC2)cc1 | 240 to 242
CCCCCCCCCCCCCCCCSCC(CNS(=O)(=O)CCCCl)n1nnnc1C (stereo unspecified) | 62 to 62.5
CCc1ccc([N+](=O)[O-])cc1COC | 21.5 to 23.5
Cc1nc2ccccn2c(=O)c1CCN1CCC(Nc2nc3ccccc3n2Cc2cnccn2)CC1 | 204
N#Cc1ccc[nH]c1=S | 243 to 246
COC(=O)CCn1c(=O)[nH][nH]c1=O | 150 to 153
CN1CCC2(c3ccccc3)OC2C1 (stereo unspecified) | 44 to 45
O=C(CCCCl)Nc1cccc(-c2ccnc3c(C(=O)c4cccs4)cnn23)c1 | 97 to 100
C=CCC(CC=C)(CC=C)C(=O)O[C@H]1C[C@H](O)C=C2C=C[C@H](C)[C@H](CC[C@@H]3C[C@@H](O)CC(=O)O3)[C@H]21 | 118 to 119
COc1ccc(OC)c2c(N=[N+]=[N-])ccnc12 | 106
COc1cc2nc(N)nc(-c3cc(I)c(O)c(I)c3)c2cc1OC | 259 to 260
COC(=O)Nc1nc2cc(C)[nH]c2c(=O)[nH]1 | 234 to 236
Nc1ncnc2c1ncn2C=CC=O | 258 to 260
Cn1nc(C(F)(F)F)cc1Oc1cc(OC(F)F)cnn1 | 86 to 88
CCCCCCNc1nc(-c2ccccc2)c(-c2ccc(=O)n(C(C)C)n2)s1 | 90 to 92
CCCCC(=O)Nc1cccc(NC(=O)CC(C)=O)c1 | 90
OC1CSC(Oc2cccc(-c3ccc(Cl)nc3)c2)C(O)C1O (stereo unspecified) | 189
COC(=O)c1ccc(OC)cc1Oc1cc(Cl)ccc1[N+](=O)[O-] | 121 to 123

SMILES | melting point [°C]
O=C(N[C@@H](CSC(=O)OCc1ccccc1)C(=O)O)OCc1ccccc1 | 93 to 94
Cc1nc2cc(NC(=O)c3cc4cc(F)ncc4n3Cc3cccc(F)c3)ccc2n1C | 245 to 247
CCN1Cc2ccccc2P1(=O)c1ccccc1 (stereo unspecified) | 94 to 95
N#CC1=C(c2ccccc2)Nc2n[nH]cc2C1c1ccccc1Cl (stereo unspecified) | 158
CSc1oc2ccc(Br)cc2c(=O)c1-c1ccc(Cl)cc1 | 205 to 206
CC(O)C1CCC2C3CCC4=CC(=O)CCC4(C)C3CCC12C (stereo unspecified) | 163 to 166
Cn1cc2c(O)cc(-c3ccc(Cl)cc3)nc2n1 | 302 to 305
C=CCOc1ccccc1C1C=NNC(=O)C1 (stereo unspecified) | 93 to 95
O=C(N[C@@H](CO)c1ccccc1)c1ccco1 | 130 to 131
CC(=O)C(=NO)C(N)=O | 96 to 97
O=C(CCCN1CCN(c2ccccn2)CC1)c1cccnc1 | 89
O=C(O)COc1cc2c(c(Cl)c1Cl)C(=O)CCC2 | 250 to 252
CC(C)(C)Oc1cccc(Cl)c1C(=O)O | 117 to 119
CCCc1c(OCCCCCc2c(O)c(O)c(Cl)c(Cl)c2Cl)ccc(C(=O)O)c1O | 193 to 196
Cc1cc(Br)ccc1NC(=O)c1cc([N+](=O)[O-])ccc1NC(=O)CF | 247 to 249
Cc1csc(N)c1S(N)(=O)=O | 142 to 144
NC(=O)c1ccc(S(=O)(=O)NCCC2CCC(CC(=O)O)CC2)cc1 (stereo unspecified) | 172 to 174
COc1cccc(C2(CC(=O)O)CCCC2C(=O)O)c1 (stereo unspecified) | 175 to 180
Cc1ccc(Cl)nc1N1CCCNC1=C[N+](=O)[O-] | 176 to 183

The next lines start with the values.

melting point [°C] | SMILES
142 to 144 | CN(C)CCC=Cc1ccc2c(c1)CCCN2C(=O)c1ccc(-c2ccc(Cl)cc2)cc1
130 to 131 | COC(=O)c1ccccc1Nc1c(Cl)ccc(C)c1Cl
238 | CN1CCC(c2c(O)cc(O)c3c(=O)cc(-c4ccc(C(F)(F)F)cc4)oc23)C1CO (stereo unspecified)
79 to 80 | CCOC(CC(=O)Nc1cc(CCNC(=O)C(F)(F)F)ccc1OC)OCC
138 | CCOC(=O)C1=C(COCCNS(=O)(=O)NC(=O)c2ccco2)NC(C)=C(C(=O)OC)C1c1ccccc1Cl (stereo unspecified)
222 to 223 | COc1ccc(C(=O)Nc2ccccc2)cc1NCc1ccc(-c2ccccc2)cc1
76 to 78 | CCOC(=O)c1ccc(OC2CCN(C(=O)OC(C)(C)C)CC2)cc1
210 to 212 | COCC1(C)Oc2ccc(C#N)cc2C(n2ccccc2=O)C1O (stereo unspecified)
294 to 296 | Cc1nc2c(N)nc3ccccc3c2n1Cc1cc(-c2ccc(F)cc2)no1
138 to 142 | CCN(CC)c1nc2cc(-c3ccccc3C#N)ccc2[nH]1
138 | CCC(NS(=O)(=O)c1ccc(Cl)c(Cl)c1)c1cnc(Oc2ccc(F)cc2)n1CC (stereo unspecified)
186 | COc1cc2c(cc1OC)C1c3ccccc3CCN1C2 (stereo unspecified)
152 to 153 | O=C(O)c1cccc(-c2cccc3sc(Cc4cccc(C(F)(F)F)c4)nc23)c1
107 to 110 | COc1cc2c(cc1OC)NC(=O)N(CCCN(C)CCCSc1ccccc1)CC2
267 | CC(=O)Nc1ccc2c(c1)C(c1cccn1-c1cc(Cl)cc(Cl)c1)C(=O)N2 (stereo unspecified)
161 to 164 | CCOC(=O)c1cn(-c2ccc(F)cc2F)c2cc(F)c(F)c(C)c2c1=O
192 to 194 | O=c1cc(Cc2c[nH]c3ccccc23)[nH]n1C1CCCCC1
190 to 191 | COc1ccc(S(=O)(=O)N2C(=O)C(O[Si](C)(C)C)(c3ccccc3OC)c3cc(Cl)c(C)cc32)c(OC)c1 (stereo unspecified)
158 to 159 | CCCCc1nc(C(C)(C)O)c(C(=O)O)n1Cc1ccc(-c2ccccc2C(=O)OC(C)(C)C)cc1
165 | COc1ccc(-c2c(C)c3cccc4c3n2CC(CCN2CCN(c3cc(C)ccn3)CC2)O4)cc1 (stereo unspecified)
165 to 167 | O=C(c1cccc(C(F)(F)F)c1)N(CCCCn1ccnc1)C1=Nc2cccc3cccc1c23
182 | Cc1ccccc1NC(=O)Nc1ccc(C(=O)N2CCCCc3ccccc32)cc1

melting point [°C] | SMILES
195 to 198 | Cc1ccc(Oc2ccc(-c3noc(=O)[nH]3)cc2)c(O)c1
196 to 197 | CCC(C)NC(=O)Nc1cc(-c2c(-c3ccc(F)c(C)c3)nc3cccnn23)ccn1 (stereo unspecified)
170 to 173 | COc1cc2c(Nc3ccc4cn[nH]c4c3)c(C#N)cnc2cc1OCCN1CCc2ccccc2C1
238 to 240 | CC(=O)Nc1ccc(C)cc1Oc1c([N+](=O)[O-])cc(C(=O)O)cc1S(N)(=O)=O
127 to 130 | CCC(=Cc1ccccc1)C(=O)c1ccc(OC)c(Cl)c1Cl
238 to 239 | CC1(C)OCC(=O)Nc2ccc(-c3cc(F)cc(C#N)c3)cc21
126 | CCC1CC(=O)N(Cc2cccc(NC(=O)C(F)(F)C(F)(F)F)c2)N=C1c1ccc(OC)c(OC2CCCC2)c1 (stereo unspecified)
168 to 170 | CCOC(=O)Cc1cc2ccc(O)cc2oc1=O
139 | CCOC(=O)c1cccn2c(C=O)c(-c3ccccc3)nc12
111 to 112 | O=C(NCC(=O)N1CCCCC1)OCc1ccccc1
201 to 202 | CC[C@@H]1O[C@](C#CC2CC2)(C(F)(F)F)c2c(ccc3c2OCO3)NC1=O (relative stereo)
244 to 248 | CCc1cc2c(cc1F)c(S(C)(=O)=O)c(-c1ccc(S(=O)(=O)NC(C)(C)C)cn1)n2-c1ncccn1
120 to 121 | CCOC(=O)Nc1nc2ccccc2c2c(CC(C)C)n(C)nc12
133 to 138 | O=C(Cc1ccccc1)Nc1ccc(-n2nc(C3CC3)cc2C2CC2)cc1
65 to 66 | COc1cc(Cc2nnc(N[C@H]3CC[C@H](C(C)C)CC3)c3ccccc23)ccn1
134 to 136 | CCOC(=O)OC1=C(c2c(C)cc(C)cc2C)C(=O)N(C)C12CCN(OC)CC2
210 | COc1cc2c(cc1OC)CN(CCc1ccc(NC(=O)c3cccc4c(=O)c5cccc(F)c5[nH]c34)c(C)c1)CC2
166 to 170 | O=c1[nH]c2ccc([C@H]3CC[C@H](NCCCc4ccccc4)CC3)cc2o1
162 to 164 | CCOC(=O)c1cc(CN2C(=O)C3(COc4cc5c(cc43)OCO5)c3ccccc32)oc1C(F)(F)F (stereo unspecified)
210 to 212 | Cc1cn(C)c2c1N(C(=O)CN1CCCC1)c1ccccc1NC2=O
150 to 151 | O=C(N(C=Cc1ccc(F)cc1)C=Cc1ccc(F)cc1)C1(O)CSc2ccccc21 (stereo unspecified)
160 to 161 | CCOC(=O)c1[nH]c2cc(Cl)c(Cl)cc2c1-c1ccc(Cl)cc1Cl
